Consider 34 molecules from patent US20260209483A1, “RUBBER COMPOSITIONS COMPRISING ANTIDEGRADANTS” (FLEXSYS AMERICA L.P., priority 2022, published 2026).

A short description of this test: Oxidative induction time (OIT) by DSC, compound mixed with polyisoprene. As to conditions: 0.5 wt % compound mixed with polyisoprene, isothermal 160 °C in O2, DSC; blank 1-2 minutes. On the procedure: OIT is measured according to a procedure carried out in a differential scanning calorimeter (TA Instruments, Q200), also knows as DSC, and is used to predict thermo-oxidative performance of a material. In this procedure, each sample is held in a sample cell and heated under a nitrogen atmosphere to a preselected temperature.
0.5 wt % of a Compound of the Disclosure, or no antidegradant (blank) was mixed with polyisoprene and heated isothermally at 160° C. in O2.
Background: DSC measures the heat that a sample takes up or gives off during a temperature scan.
As for `Cc1cc(Cc2cc(C)c(NC(C)C)c(C)c2)cc(C)c1NC(C)C` [Compound 154-A, 4,4′-methylenebis(N-isopropyl-2,6-dimethylaniline)], the “Peak time of OIT testing” value was 1.5 min.
Consider `CC(C)Nc1ccc(Cc2ccc(NC(C)C)cc2)cc1` [Compound 19-A, 4,4′-methylenebis(N-isopropylaniline)], for which the “Peak time of OIT testing” value was 2.7 min.
In the case of `Cc1cc(NC(C)C)cc2c1NCCC2(C)c1ccccc1` (stereo not shown) [Compound 1-F, N-isopropyl-4,8-dimethyl-4-phenyl-1,2,3,4-tetrahydroquinolin-6-amine], the “Peak time of OIT testing” value worked out at 20.3 min.
With `CC1=CC(C)(C)Nc2c(C)cc(Nc3ccccc3)cc21` [Compound 1-B, 2,2,4,8-tetramethyl-N-phenyl-1,2-dihydroquinolin-6-amine], the “Peak time of OIT testing” value came out at 15.2 min.
`Cc1cc(NC(C)C)cc2c1NC(C(C)C)CC2(C)c1ccccc1` (stereo not shown) [Compound 4-F, N,2-diisopropyl-4,8-dimethyl-4-phenyl-1,2,3,4-tetrahydroquinolin-6-amine]: the “Peak time of OIT testing” value was 19.6 min.
Turning to `Cc1cc(NC(C)C)cc2c1NC(c1ccccc1)CC2(C)c1ccccc1` (stereo not shown) [Compound 3-F, N-isopropyl-4,8-dimethyl-2,4-diphenyl-1,2,3,4-tetrahydroquinolin-6-amine], the “Peak time of OIT testing” value is 43.8 min.
`CC(C)Nc1ccc(Sc2ccc(NC(C)C)cc2)cc1` [Compound 11-A]: the “Peak time of OIT testing” value is 2.5 min.
In the case of `CC1CC(C)(C)Nc2cc3c(cc21)NC(C)(C)CC3C` (stereo not shown) [Compound 33-H, 2,2,4,7,7,9-hexamethyl-1,2,3,4,6,7,8,9-octahydropyrido[2,3-g]quinoline], the “Peak time of OIT testing” value amounted to 8.3 min.
For the molecule `CC1=CC(C)(C)Nc2c1ccc(NC(C)CC(C)C)c2C` (stereo not shown) [Compound 1-J, 2,2,4,8-tetramethyl-N-(4-methylpentan-2-yl)-1,2-dihydroquinolin-7-amine], the “Peak time of OIT testing” value worked out at 2.6 min.
On to `CC(Nc1ccc2[nH]ccc2c1)c1ccccc1` (stereo not shown) [Compound 19-C, N-(1-phenylethyl)-1H-indol-5-amine], for which the “Peak time of OIT testing” value worked out at 6.9 min.
As for `CCOC(=O)C1=CC(C)(C(=O)OCC)Nc2ccc(Nc3ccccc3)cc21` (stereo not shown) [Compound 3-H, diethyl 2-methyl-6-(phenylamino)-1,2-dihydroquinoline-2,4-dicarboxylate], the “Peak time of OIT testing” value is 12.9 min.
With `CC1=CC(C)(C)Nc2ccc(NCc3ccco3)cc21` [Compound 1-H, N-(furan-2-ylmethyl)-2,2,4-trimethyl-1,2-dihydroquinolin-6-amine], the “Peak time of OIT testing” value is 10.7 min.
As for `COC1=CC(=Nc2ccccc2)C=C2C(C)=CC(C)(C)N=C12` [Compound 7-D, 8-methoxy-2,2,4-trimethyl-N-phenylquinolin-6(2H)-imine], the “Peak time of OIT testing” value is 24.6 min.
For the molecule `CC(C)Nc1ccc(C(c2ccc(NC(C)C)cc2)c2ccco2)cc1` [Compound 3-A, 4,4′-(furan-2-ylmethylene)bis(N-isopropylaniline)], the “Peak time of OIT testing” value is 5.9 min.
Consider `Cc1cc(Nc2ccccc2)cc2c1NC(C)(C)CC2C` (stereo not shown) [Compound 2-B, 2,2,4,8-tetramethyl-N-phenyl-1,2,3,4-tetrahydroquinolin-6-amine], for which the “Peak time of OIT testing” value amounted to 17.8 min.
`CCC(CC)Nc1cc(C)c2c(c1)C(C)(c1ccccc1)CCN2` (stereo not shown) [Compound 2-F, 4,8-dimethyl-N-(pentan-3-yl)-4-phenyl-1,2,3,4-tetrahydroquinolin-6-amine]: the “Peak time of OIT testing” value amounted to 17.4 min.
Consider `CCOC(=O)C1=CC(C)(C(=O)OCC)Nc2c(C)cc(Nc3ccccc3)cc21` (stereo not shown) [Compound 120-B, diethyl 2,8-dimethyl-6-(phenylamino)-1,2-dihydroquinoline-2,4-dicarboxylate], for which the “Peak time of OIT testing” value is 11.5 min.
For `CC(Nc1ccc(Cc2ccc(NC(C)c3ccccc3)cc2)cc1)c1ccccc1` (stereo not shown) [Compound 21-A, 4,4′-methylenebis(N-(1-phenylethyl)aniline)] the value was 2.6 min.
With `Cc1cc(NC(C)C)cc2c1NCC(C)(C)C2` [Compound 47-F, N-isopropyl-3,3,8-trimethyl-1,2,3,4-tetrahydroquinolin-6-amine] the figure was 3.2 min; with `CC(Nc1ccc(Cc2ccc(NC(C)c3ccco3)cc2)cc1)c1ccco1` (stereo not shown) [Compound 20-A, 4,4′-methylenebis(N-(1-(furan-2-yl)ethyl)aniline)], 2.3 min; with `CC1CC(C)(C)Nc2ccc(Cc3ccc4c(c3)C(C)CC(C)(C)N4)cc21` (stereo not shown) [Compound 2-A, bis(2,2,4-trimethyl-1,2,3,4-tetrahydroquinolin-6-yl) methane], 10.8 min.
Consider `CC(C)Nc1ccc(C(c2ccccc2)c2ccc(NC(C)C)cc2)cc1` [Compound 16-A, 4,4′-(phenylmethylene)bis(N-isopropylaniline)], for which the “Peak time of OIT testing” value stood at 6.6 min.
`CCC(C)Nc1ccc2c(c1)CCN2` (stereo not shown) [Compound 2-C, N-(sec-butyl) indolin-5-amine]: the “Peak time of OIT testing” value was 14.1 min.
Turning to `CC1=CC(C)(C)Nc2ccc(Sc3ccc4c(c3)C(C)=CC(C)(C)N4)cc21` [Compound 153-A, bis(2,2,4-trimethyl-1,2-dihydroquinolin-6-yl)sulfane], the “Peak time of OIT testing” value came out at 5.8 min.
Regarding `COc1cc(Nc2ccccc2)cc2c1NC(C)(C)C=C2C` [Compound 7-B, 8-methoxy-2,2,4-trimethyl-N-phenyl-1,2-dihydroquinolin-6-amine], the “Peak time of OIT testing” value came to 31.0 min.
Turning to `c1coc(CNc2ccc(C(c3ccc(NCc4ccco4)cc3)c3ccco3)cc2)c1` [Compound 7-A, 4,4′-(furan-2-ylmethylene)bis(N-(furan-2-ylmethyl)aniline)], the “Peak time of OIT testing” value was 4.1 min.
With `CCC(C)Nc1ccc2[nH]ccc2c1` (stereo not shown) [Compound 1-C, N-(sec-butyl)-1H-indol-5-amine], the “Peak time of OIT testing” value was 19.2 min.
`CC1=CC(C)(C)Nc2cc3c(cc21)NC(C)(C)C=C3C` [Compound 32-H, 2,2,4,7,7,9-hexamethyl-1,2,6,7-tetrahydropyrido[2,3-g]quinoline]: the “Peak time of OIT testing” value came out at 6.6 min.
As to `c1coc(CNc2ccc(Cc3ccc(NCc4ccco4)cc3)cc2)c1` [Compound 8-A, 4,4′-methylenebis(N-(furan-2-ylmethyl)aniline)], the “Peak time of OIT testing” value came out at 2.9 min.
For `Cc1cc(NC(C)c2ccccc2)cc2c1NC(C)(C)CC2` (stereo not shown) [Compound 119-B, 2,2,8-trimethyl-N-(1-phenylethyl)-1,2,3,4-tetrahydroquinolin-6-amine] the value was 21.9 min; for `Cc1c(NC(C)C)ccc2c1NCCC2(C)c1ccccc1` (stereo not shown) [Compound 2-J, N-isopropyl-4,8-dimethyl-4-phenyl-1,2,3,4-tetrahydroquinolin-7-amine], 15.6 min.
`CC1=CC(C)(C)Nc2ccc(Cc3ccc4c(c3)C(C)=CC(C)(C)N4)cc21` [Compound 1-A, bis(2,2,4-trimethyl-1,2-dihydroquinolin-6-yl) methane]: the “Peak time of OIT testing” value was determined as 4.8 min.
For `CC(C)Nc1ccc(Oc2ccc(NC(C)C)cc2)cc1` [Compound 27-A] the value was 4.2 min; for `CC(C)CCC(C)Nc1ccc(NC(C)CCC(C)C)nc1` (stereo not shown) [Compound 1-E, N^2,N^5-bis(5-methylhexan-2-yl)pyridine-2,5-diamine], 11.1 min.
